Test results taken from PubChem BioAssay (NCI).
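Grown in 96-well plates, cells were treated for 48 hours with each compound at five concentrations. Insufficient inhibition: endpoint recorded as highest concentration tested. TGI denotes the concentration required for complete inhibition of growth.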

What was measured:
Assay in all cases: growth of human tumour cells (NCI), 48 h
SF-268 CNS = test system: SF-268 CNS
EKVX NSCLC = test system: EKVX NSCLC
IGROV1 ovarian = test system: IGROV1 ovarian
A549 NSCLC = test system: A549 NSCLC
NCI/ADR-RES ovarian = test system: NCI/ADR-RES ovarian
SNB-19 CNS = test system: SNB-19 CNS
U251 CNS = test system: U251 CNS
OVCAR-4 ovarian = test system: OVCAR-4 ovarian
HL-60(TB) leukemia = test system: HL-60(TB) leukemia
SNB-75 CNS = test system: SNB-75 CNS
MALME-3M melanoma = test system: MALME-3M melanoma
DU-145 prostate = test system: DU-145 prostate
HOP-62 NSCLC = test system: HOP-62 NSCLC

SMILES | TGI (SF-268 CNS) [µM] | TGI (EKVX NSCLC) [µM] | TGI (IGROV1 ovarian) [µM] | TGI (A549 NSCLC) [µM] | TGI (NCI/ADR-RES ovarian) [µM] | TGI (SNB-19 CNS) [µM] | TGI (U251 CNS) [µM] | TGI (OVCAR-4 ovarian) [µM] | TGI (HL-60(TB) leukemia) [µM] | TGI (SNB-75 CNS) [µM] | TGI (MALME-3M melanoma) [µM] | TGI (DU-145 prostate) [µM] | TGI (HOP-62 NSCLC) [µM]
Cc1ccc(C)c2c1n1c(=O)n(C)c(=O)n21 | > 100 | > 100 | > 100 | > 100 | > 100 | > 100 | > 100 | > 100 | > 100 | > 100 | > 100 | > 100 | 
CC(C)=CCC[C@@H](C)C1=C(O)C(Nc2ccccc2)=C(C)C(=O)C1=O | > 100 | > 100 | > 100 | 45.5 | 45.6 | > 100 | > 100 | > 100 | 24.4 | > 85.8 | > 75 | > 74.2 | > 55.2
COc1ccc(/C=C2\OC(=O)C(Cl)=C2c2ccc(OC)c(Cl)c2)cc1 | 44.3 | 51.8 | > 100 | > 100 | 52.6 | > 100 | > 100 | 51.8 | > 100 | 63.4 | 62.3 | > 100 | 35.7
NC(=S)NS(=O)(=O)c1ccc(Cl)cc1 | > 100 | > 100 | > 100 | > 100 | > 100 | > 100 | > 100 | > 100 | > 100 | > 100 | > 100 | > 100 | > 100
CC1CN=C(c2ccc(CN3CCC(CCCC4CCN(Cc5ccc(C6=NCC(C)N6)cc5)CC4)CC3)cc2)N1 (stereo not given) | > 100 | 92 | > 100 | > 100 | > 100 | 71.5 | > 100 | 57.1 | > 100 | 87.6 | > 100 | > 100 | > 100
CC1=NN2CCC(=O)N=C2S1 | > 100 | > 100 | > 100 | > 100 | > 100 | > 100 | > 100 | > 100 | > 100 | > 100 | > 100 | > 100 | > 100
CCOC(=O)CCC(NC(=O)c1ccc(Nc2nc3ccccc3nc2C(=O)OCC)s1)C(=O)OCC (stereo not given) | > 100 | > 100 | > 100 | > 100 | > 100 | > 100 | > 100 | > 100 | > 100 | > 100 | > 100 | > 100 | 
O=C(O)c1cccc(S(=O)(=O)NN2C(=O)CSC2c2c(O)ccc3ccccc23)c1 (stereo not given) | 91.5 | > 100 | 45.1 | > 100 | 76.9 | 87 | > 100 | 83 | 59.8 | > 100 | 90.6 | > 100 | > 100
COC(=O)/C=C\C(C#N)(C#N)N=Cc1ccc(Br)cc1 | 31.1 | 29.6 | 37 | > 74.8 | 76 | 55.2 | 33.3 | 23.7 | 1.27 | 28.8 | 12.4 | 16.7 | 33.4
Nc1c(C(=O)O)nnc2cc(Cl)ccc12 | > 100 | > 100 | > 100 | > 100 | > 100 | > 100 | > 100 | > 100 | > 100 | > 100 | > 100 | > 100 | > 100
Cc1nccn1S(=O)(=O)c1ccc(Cl)cc1 | > 100 | > 100 | > 100 | > 100 | > 100 | > 100 | > 100 | > 100 | 60.5 | > 100 | > 100 | > 100 | > 100
CCN(CC)C(=O)c1cc([N+](=O)[O-])c(=O)n2c1[nH]c1ccccc12 | > 100 | > 100 | > 100 | > 100 | > 100 | > 100 |  | > 100 | > 100 | > 100 | > 100 | > 100 | > 100
C=C1CC(O)C2C(=C)C(=O)OC2C2C(C)C(=O)CC12 (stereo not given) | 45.7 | 35.6 | 36.2 | 41 | 49.7 | 38.5 | 59.1 | 37.8 | 9.43 | 30.3 | 31.5 | 46.8 | 42.7
O=C(CN1CCN(c2ccccn2)CC1)N1CCCn2c1nc1ccccc1c2=O | > 100 | > 100 | > 100 | > 100 | > 100 | > 100 | > 100 | > 100 | > 100 | > 100 | > 100 | > 100 | > 100
Cc1ccc2c(c1)Nc1ccccc1P2(=O)O | > 100 | > 100 | > 100 | > 100 | > 100 | > 100 | > 100 | > 100 | > 100 | 97.7 | > 100 | > 100 | > 100
Clc1ncnc2c1nc(C#Cc1ccccc1)n2C1CCCCO1 (stereo not given) | 6.22 | 3.67 |  | 4.04 | 7.01 | 6.22 | 4.29 | 3.75 | 6.94 | 7.78 | 3.91 | 2.79 | 6.38
OCC(S)CS.[Bi] (stereo not given) | 28.4 | 45.4 | 54.9 | > 100 | > 100 | 37.3 | 40.2 | 69.2 | 46.4 | 26.8 | 17.6 | 68.5 | 50.9
NNS(=O)(=O)c1ccc(/C=C2\NC(=O)NC2=O)cc1 | > 100 | > 100 | > 100 | > 100 | > 100 | > 100 | > 100 | > 100 | > 100 | > 100 | > 100 | > 100 | > 100
Cn1c(-c2c(C3=CC(=O)N(c4ccccc4)C3=O)c3ccccc3n2C)cc2ccccc21 |  | > 100 | > 100 | > 100 | > 100 | > 100 | > 100 | > 100 | > 100 | > 100 | > 100 | > 100 | > 100
COc1cc2nc(-c3cccs3)nc(N3C(c4cc(OC)c(OC)c(OC)c4)=NNC(=O)c4ccccc43)c2cc1OC | > 100 | 73.5 | > 100 | > 100 | 9.25 | 46.3 | 50.4 | 42.1 | > 100 | 54.2 | 45 | 91.1 | > 100
Nc1ccn(CC(O)c2cc3ccccc3[nH]2)c(=O)n1 (stereo not given) | > 100 | > 100 | > 100 | > 100 | > 100 | > 100 | > 100 | > 100 | > 100 | > 100 | > 100 | > 100 | > 100
CCC(C)N1CN(c2ccccc2)C2(CCN(CCCC3(c4ccc(F)cc4)OCCO3)CC2)C1=O (stereo not given) | 48.5 | 17.6 | 30.7 | 23.2 | 27.6 | 34.6 | 10.9 | > 49.4 | 23 | 19.8 | 9.5 | > 57.3 | 27.6
Fc1ccc2c(c1)nc1n2C(c2c(F)cccc2F)SC1 (stereo not given) | > 100 | > 100 | > 100 | > 100 | > 100 | > 100 | > 100 | > 100 | 70 | > 100 | > 100 | > 100 | > 100
CC(C)(CO)CNc1cc(Cl)nc(N)n1 | > 100 | > 100 | > 100 | > 100 | > 100 |  | > 100 | > 100 | > 100 | > 100 | > 100 | > 100 | > 100
O=C(O)C1CSC2(CCCN(Cc3ccccc3)C2)N1 (stereo not given) | > 100 | > 100 | > 100 | > 100 | > 100 | > 100 | > 100 | > 100 | > 100 | > 100 | > 100 | > 100 | > 100
Cc1ccc(S(=O)(=O)NC(=O)NC(CC(=O)O)C(=O)O)cc1 (stereo not given) | > 100 |  | > 100 | > 100 | > 100 | > 100 | > 100 | > 100 | > 100 | > 100 | > 100 | > 100 | > 100
O=C(Cn1c(=O)oc2ccc(C(=O)c3cccc(Cl)c3)cc21)c1ccccc1 | > 100 | > 100 | > 100 | > 100 | > 100 |  | > 100 | > 100 | > 100 | > 100 | > 100 | > 100 | > 100
CNC(=O)C1OC(n2cnc3c(NCc4cccc(I)c4)nc(Cl)nc32)C(O)C1O (stereo not given) | 23.5 | 31.5 | 27.2 |  | 24 | 24.9 | 40.4 |  | > 100 | 16.5 | 19.6 | 50.4 | 25.2
O=C1Nc2ccccc2SC1=C(C(=O)c1ccccc1)C(=O)c1ccccc1 | > 100 | > 100 | > 100 | > 100 | > 100 | > 100 | > 100 | > 100 | 0.82 | > 94.6 | > 100 | > 100 | > 100
COc1ccc(/C=C(/c2ccc(OC)cc2)c2c(Cl)cc(Cl)c(/C(=C\c3ccc(OC)cc3)c3ccc(OC)cc3)c2N=Nc2ccccc2)cc1 | > 100 | > 100 | > 100 | > 100 | > 100 | > 100 | > 100 | > 100 | > 100 | > 100 | > 100 | > 100 | > 100
